Data published in ChEMBL document CHEMBL1124466, “Synthesis of 5-[1-hydroxy(or methoxy)-2-bromo(or chloro)ethyl]-2'-deoxyuridines and related halohydrin analogues with antiviral and cytotoxic activity” (1989).
In brackets after ≈: the same amount, converted by molar mass.

How the values were obtained:
Type in all cases: functional
Vero = assay: In vitro antiviral activity against herpes simplex virus type-1 in vero cells; conditions: Chlorocebus sabaeus, read-out: ID50 (the source's name)
L1210 [1] = assay: In vitro cytotoxicity against L1210 cells at a dose 10 ug/mL; conditions: Mus musculus, read-out: Survival
L1210 [2] = assay: In vitro cytotoxicity against L1210 cells at a dose 50 ug/mL; conditions: Mus musculus, read-out: Survival
L1210 [3] = assay: Effective dose against L1210 cells.; conditions: Mus musculus, read-out: ED50 (the source's name)

SMILES | IC50 (Vero) [µg/mL] | viability at 10 µg/mL (L1210 [1]) [%] | viability at 50 µg/mL (L1210 [2]) [%] | EC50 (L1210 [3]) [µg/mL]
O=c1[nH]c(=O)n([C@H]2C[C@H](O)[C@@H](CO)O2)cc1C(Br)C(O)I.O=c1[nH]c(=O)n([C@H]2C[C@H](O)[C@@H](CO)O2)cc1C(O)C(Br)I (stereo partly specified) | > 10 | 79.2 | 40.1 | 
COC(CCl)c1cn([C@H]2C[C@H](O)[C@@H](CO)O2)c(=O)[nH]c1=O (stereo partly specified) | > 10 | 75 | 38.8 | 
COC(CBr)c1cn([C@H]2C[C@H](O)[C@@H](CO)O2)c(=O)[nH]c1=O (stereo partly specified) | 0.1 (≈ 0.274 µM) | 80.8 | 11.7 | 
O=c1[nH]c(=O)n([C@H]2C[C@H](O)[C@@H](CO)O2)cc1C(O)CCl (stereo partly specified) | 0.1 (≈ 0.326 µM) | 74 | 24.3 | 
O=c1[nH]c(=O)n([C@H]2C[C@H](O)[C@@H](CO)O2)cc1C(O)CBr (stereo partly specified) | > 10 | 65.5 | 23.7 | 
CCOC(=O)C(Br)C(O)c1cn([C@H]2C[C@H](O)[C@@H](CO)O2)c(=O)[nH]c1=O (stereo partly specified) | 1 (≈ 2.36 µM) | 49.7 | 4.9 | 11 (≈ 26 µM)
CCOC(=O)C(I)C(O)c1cn([C@H]2C[C@H](O)[C@@H](CO)O2)c(=O)[nH]c1=O (stereo partly specified) | 0.1 (≈ 0.213 µM) | 73.2 | 10.4 | 
Nc1nc2c(ncn2COCCO)c(=O)[nH]1 [ACYCLOVIR] | 0.01 (≈ 0.0444 µM) |  |  | 
N[C@@H](Cc1ccc(N(CCCl)CCCl)cc1)C(=O)O [MELPHALAN] |  | 2.8 | 0 | 0.15 (≈ 0.491 µM)
